Each structure is given as a SMILES string.

Assay [1] deals with T1, IDE, substrate glucagon (Homo sapiens, UniProt P14735).
T1 sequence (P14735 1-1019): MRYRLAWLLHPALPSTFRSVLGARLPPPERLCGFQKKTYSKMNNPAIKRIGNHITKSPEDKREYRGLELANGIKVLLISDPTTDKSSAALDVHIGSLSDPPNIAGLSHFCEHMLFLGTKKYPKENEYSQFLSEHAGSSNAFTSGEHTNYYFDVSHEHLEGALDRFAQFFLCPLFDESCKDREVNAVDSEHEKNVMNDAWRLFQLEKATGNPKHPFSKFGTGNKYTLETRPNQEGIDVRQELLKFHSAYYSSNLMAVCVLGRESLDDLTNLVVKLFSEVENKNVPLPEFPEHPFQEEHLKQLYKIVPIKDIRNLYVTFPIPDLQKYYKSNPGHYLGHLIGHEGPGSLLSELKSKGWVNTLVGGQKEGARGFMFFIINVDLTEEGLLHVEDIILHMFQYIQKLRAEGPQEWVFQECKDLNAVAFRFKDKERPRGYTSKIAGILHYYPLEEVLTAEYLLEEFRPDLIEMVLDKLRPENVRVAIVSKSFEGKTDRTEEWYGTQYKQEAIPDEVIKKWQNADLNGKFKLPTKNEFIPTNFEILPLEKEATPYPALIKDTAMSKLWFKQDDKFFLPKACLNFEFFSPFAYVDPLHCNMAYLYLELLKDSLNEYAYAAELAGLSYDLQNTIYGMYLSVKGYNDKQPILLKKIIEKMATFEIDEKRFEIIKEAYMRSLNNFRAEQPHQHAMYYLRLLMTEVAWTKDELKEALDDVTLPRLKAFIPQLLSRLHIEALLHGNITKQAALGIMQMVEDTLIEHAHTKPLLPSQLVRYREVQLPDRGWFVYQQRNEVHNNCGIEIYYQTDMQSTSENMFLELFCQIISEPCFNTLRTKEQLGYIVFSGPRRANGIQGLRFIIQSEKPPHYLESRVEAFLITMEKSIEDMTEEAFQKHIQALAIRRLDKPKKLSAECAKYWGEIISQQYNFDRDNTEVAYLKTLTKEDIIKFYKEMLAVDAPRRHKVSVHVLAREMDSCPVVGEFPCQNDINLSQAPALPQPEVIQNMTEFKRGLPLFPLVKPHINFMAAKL
In words: MALDI analysis of glucagon cleavage products (FIGS. 27-32). The class given is biochemical. Conditions: FIG. 27A.

Assay [2] deals with T2, recombinant human IDE42-1019 (Homo sapiens, UniProt P14735).
T2 construct: recombinant human IDE42-1019 (R&D Systems); purchased R&D Systems
T2 sequence (P14735 42-1019): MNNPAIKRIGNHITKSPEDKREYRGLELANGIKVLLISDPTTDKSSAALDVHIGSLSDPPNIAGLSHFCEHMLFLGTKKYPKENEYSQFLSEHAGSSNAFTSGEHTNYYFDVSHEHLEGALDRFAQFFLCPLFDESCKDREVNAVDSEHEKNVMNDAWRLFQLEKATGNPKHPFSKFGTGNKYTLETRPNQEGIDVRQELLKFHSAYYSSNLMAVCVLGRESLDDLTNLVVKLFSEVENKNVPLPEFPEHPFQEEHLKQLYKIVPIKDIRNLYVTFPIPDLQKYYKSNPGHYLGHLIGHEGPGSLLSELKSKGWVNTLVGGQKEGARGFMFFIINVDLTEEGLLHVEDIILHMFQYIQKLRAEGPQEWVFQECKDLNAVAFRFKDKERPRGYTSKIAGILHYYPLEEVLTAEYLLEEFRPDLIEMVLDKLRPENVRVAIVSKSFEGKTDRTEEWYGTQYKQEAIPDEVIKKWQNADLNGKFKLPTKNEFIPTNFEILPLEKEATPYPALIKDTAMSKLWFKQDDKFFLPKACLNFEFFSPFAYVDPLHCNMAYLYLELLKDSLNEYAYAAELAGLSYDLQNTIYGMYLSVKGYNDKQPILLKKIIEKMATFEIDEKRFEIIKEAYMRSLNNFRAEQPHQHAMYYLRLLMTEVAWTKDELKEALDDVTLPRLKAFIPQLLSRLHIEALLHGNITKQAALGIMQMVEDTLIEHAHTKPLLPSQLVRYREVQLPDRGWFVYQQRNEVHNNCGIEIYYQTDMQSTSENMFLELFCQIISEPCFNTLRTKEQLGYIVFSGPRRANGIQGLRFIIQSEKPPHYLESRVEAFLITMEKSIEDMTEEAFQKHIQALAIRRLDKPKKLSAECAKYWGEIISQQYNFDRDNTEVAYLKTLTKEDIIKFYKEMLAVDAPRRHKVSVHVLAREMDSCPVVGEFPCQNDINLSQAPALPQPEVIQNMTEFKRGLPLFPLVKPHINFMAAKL
Put plainly: Protease assay with fluorogenic peptide substrate Mca-[…](Dnp)-OH. The class given is biochemical. The note with it: fluorogenic peptide Mca-RPPGFSAFK(Dnp)-OH; apparent IC50 for compounds with submaximal inhibition; read-out: IC50 (μM) Proteolysis.

With `Cc1cccc(-c2ccc([C@H]3C4CN(S(=O)(=O)c5ccccc5C(F)(F)F)CCCCN4[C@@H]3CF)cc2)c1C` (stereo partly drawn) [JP-18], the “main glucagon cleavage site” value in assay [1] is listed as “no change in the main glucagon cleavage site”. As usually defined, the IC50 is the concentration needed to halve the response being measured. Consider `Cc1cccc(-c2ccc([C@@H]3[C@@H](CO)N4CCCCN(S(=O)(=O)c5ccccc5C(F)(F)F)C[C@@H]34)cc2)c1C` [JP-17], for which the “main glucagon cleavage site” value in assay [1] was “no change in the main glucagon cleavage site”. In assay [2], the IC50 worked out at 0.001 µM.

(Values after patent US11040976B2, “Substrate selective inhibitors of insulin-degrading enzyme (IDE) and uses thereof” (President and Fellows of Harvard College, priority 2015, dated 2021).)
